Legend:
[1] = system: Plasmodium falciparum; assay: NOVARTIS: Inhibition of Plasmodium falciparum 3D7 (drug-susceptible) proliferation in erythrocyte-based infection assay; type: functional, organism-based; details: Plasmodium falciparum, 3D7
[2] = system: Plasmodium falciparum; assay: NOVARTIS: Inhibition of Plasmodium falciparum W2 (drug-resistant) proliferation in erythrocyte-based infection assay; type: functional, organism-based; details: Plasmodium falciparum, W2; read-out: EC50
[3] = NOVARTIS: Cytotoxicity against human hepatocellular carcinoma cell line (Huh7); type: toxicity, cell-based, Huh-7; details: Huh7 cells (hepatocellular carcinoma cell line)

Structure (SMILES) | EC50 [1] [nM] | EC50 [2] [nM] | CC50 [3] [nM]
C=CC1CN2CCC1CC2C(O)c1ccnc2ccccc12 (stereo not drawn) | 43.5 | 84.1 | > 100000
Nc1ccnc2cc(Cl)ccc12 | 415 | 57.6 | 72000
CC(C)C[C@H](NC(=O)N1CCOCC1)C(=O)N[C@H](/C=C/S(=O)(=O)c1ccccc1)CCc1ccccc1 | 210 | 37.7 | 48800
c1cc(-c2nc3ccccc3[nH]2)nc(-c2nc3ccccc3[nH]2)c1 | 686 | 916 | 47500
C=CCNc1cc(-c2ccccn2)nc(-c2ccccn2)n1 | 125 | 192 | > 10000
COc1cc(C(=O)NC2CC2)ccc1OC1CCN(CC(c2ccccc2)c2ccccc2)CC1 | 44.4 | 18.5 | 23500
c1ccc(CCNc2cccc3ccccc23)cc1 | 128 | < 7.52 | > 10000
COc1cncc(-c2cncc(-c3ccc(C)cc3)n2)c1 | 94.9 | 85.2 | > 100000
Cc1ccn2c(NC(C)(C)CC(C)(C)C)c(-c3ccccc3OC(=O)C(C)(C)C)nc2c1 | 520 | < 7.9 | > 11100
CCOC(=O)C(=O)N1c2ccccc2-c2c(ssc2=S)C1(C)C | 91.6 | 73.5 | > 100000
CC1CCC2C(C)C(=O)OC3OC(C)C4CC1C32OO4 (stereo not drawn) | 19.1 | 7.62 | > 10000
CCOC(=O)C1=C(C)NC2=C(C(=O)CC(c3ccc(OC)c(OC)c3)C2)C1c1cccc(Cl)c1 (stereo not drawn) | 88.2 | 55.6 | > 74600
COc1ccc(C2CC(=O)C3=C(C2)NC(C)=C(C(=O)OC2CCCC2)C3c2ccccc2OC)cc1OC (stereo not drawn) | 212 | 72.8 | > 100000
CCOc1ccc(N(CC)S(=O)(=O)c2cc(Br)cc3c2N(C(C)=O)CC3)cc1 | 125 | 76.1 | > 100000
COc1cccc(-c2ccc(O)c(CNC3CCCCCCC3)c2)n1 | 71.9 | 20.3 | 23100
C=C[C@H]1CN2CC[C@H]1C[C@H]2[C@H](OC(=O)c1ccc(F)cc1)c1ccnc2ccccc12 | 777 | < 8.08 | > 10000
S=C(NN=CC=NNC(=S)Nc1ccccc1)Nc1ccccc1 | 1040 | 288 | 15000
Cc1ccc(OCCCCCCNCCO)c(C)c1 | 1970 | 391 | 20400
COc1cccc(-c2ccc(O)c(CNC(C)c3cccc4ccccc34)c2)n1 (stereo not drawn) | 285 | 48.4 | 61200
CCCC(C)C(C(=O)NCc1ccccc1)N1C(=O)c2cc(NC(C)=O)ccc2NC(=O)[C@@H]1c1ccccc1 (stereo partly drawn) | > 1250 | < 7.12 | 9210
O=S(=O)(NCCCCNc1ccnc2cc(Cl)ccc12)c1ccc2ccccc2c1 | 268 | 4.95 | 6410
Oc1ccc(-c2ccccc2)cc1CN1CCCCCC1 | 242 | 53.7 | 67400

Structure (SMILES) | EC50 [1] [nM] | EC50 [2] [nM] | CC50 [3] [nM]
COc1ccc(Cl)cc1NC(=O)CSC1=C(C#N)C(c2ccccc2)C(C(=O)Nc2ccccc2)=C(C)N1 (stereo not drawn) | 3760 | 1910 | > 100000
Cc1ccc(-c2c3c(nc4sc(C(=O)Nc5cccc(C)c5)c(N)c24)CCC3)cc1 | 1010 | 82.7 | > 100000
Cc1ccc2c(Cl)c(C(=O)N3CC(C)OC(C)C3)sc2c1 (stereo not drawn) | 102 | 72 | > 100000
COc1cc2nc(NCc3ccccn3)n3nc(-c4ccccc4)nc3c2cc1OC | 3770 | 1910 | > 100000
CCOC(=O)C1=C(CC)NC2=C(C(=O)CCC2)C1c1ccc(N(C)C)cc1 (stereo not drawn) | 8700 | 1910 | > 100000
CC(=O)c1ccc(-n2cc(C(=O)C(C)Oc3ccc(Cl)cc3Cl)nn2)cc1 (stereo not drawn) | 72.9 | 192 | > 10000
COc1ccc(C2CC(=O)C3=C(C2)NC(C)=C(C(=O)OC2CCCC2)C3c2ccccc2F)cc1OC (stereo not drawn) | 40.4 | 12 | 14900
CCOc1ccc(S(=O)(=O)N=C2C=C(Nc3ccc(O)cc3)C(=O)c3ccccc32)cc1 | 158 | 135 | 7050
Cc1cccc[n+]1CCCCCCCCCC[n+]1ccccc1C | 102 | 81.8 | > 100000
O=[N+]([O-])c1ccc(N2CCCN(C(=S)Nc3ccccc3)CC2)nc1 | 91.5 | 80.1 | > 100000
COc1cncc(-c2cncc(-c3ccc(Oc4ccccc4)cc3)n2)c1 | 43.9 | 79.8 | > 100000
CCOC(=O)C1=C(C)NC2=C(C(=O)C(C(=O)OCC)C(c3ccccc3OC)C2)C1c1ccc(OC)c(OC)c1 (stereo not drawn) | 83.1 | 74.4 | > 100000
CCOC(=O)c1cnc2c(C)cccc2c1Nc1ccc(C(C)=O)cc1 | 119 | 84.6 | > 100000
COc1cc(CN(CCCN2CCOCC2)C(=O)Nc2cccc(C)c2)ccc1OCc1ccccc1 | > 1250 | 8.39 | > 10000
CC(C)(C)CC(=O)NCc1ccc(OC2CCN(CC(c3ccccc3)c3ccccc3)CC2)cc1 | 1160 | < 8.77 | > 10000
Cc1ccc2nc(Cl)c3cc(C(=O)Nc4ccc(CN5CCC(C)CC5)cc4)sc3c2c1 | 45.1 | 64.9 | > 75800
CC(C)CCN(CCC(C)C)CC(O)Cn1c2ccc(Cl)cc2c2cc(Cl)ccc21 (stereo not drawn) | 292 | 82.8 | > 100000
Cc1ccn2c(NC(C)(C)CC(C)(C)C)c(-c3ccccc3OC(=O)c3cccc(F)c3)nc2c1 | 581 | < 8.37 | > 10000
O=C(NC1CCN(CC(O)CN(Cc2ccccc2)S(=O)(=O)c2ccccc2)C1)c1cccc2ccccc12 (stereo not drawn) | 82.5 | < 8.3 | > 10000
Oc1ccc(CN2CCCCC2)nc1-c1ccccc1 | 241 | 86.6 | > 100000
Cc1ccn2c(NC(C)(C)CC(C)(C)C)c(-c3ccccc3OC(=O)C3CCCC3)nc2c1 | 1010 | < 8.29 | > 10000
O=C(NC1CCN(CC(O)CN(Cc2ccccc2)S(=O)(=O)c2ccccc2)C1)c1ccsc1 (stereo not drawn) | 120 | < 8.62 | > 10000

Structure (SMILES) | EC50 [1] [nM] | EC50 [2] [nM] | CC50 [3] [nM]
CCOc1ccc(N(C(C)=O)C2=C(N3CCN(C)CC3)C(=O)c3ccccc3C2=O)cc1 | 78.7 | 10.9 | 12900
c1ccc(Cc2cc[n+](Cc3ccccc3)cc2)cc1 | 144 | 72.5 | > 100000
COc1ccc(C2CC(=O)C3=C(C2)NC(C)=C(C(=O)OC2CCCC2)C3c2ccc(Cl)cc2)cc1OC (stereo not drawn) | 29 | 16.7 | 21600
O=c1c2ccccc2nc(C=Cc2ccc([N+](=O)[O-])o2)n1-c1ccc(Br)cc1 | > 12300 | 1920 | > 100000
COc1ccc(C(=O)Oc2ccccc2-c2nc3ccccn3c2NC(C)(C)CC(C)(C)C)cc1 | > 1600 | 7.51 | > 10000
CCOC(=O)C1=C(C)NC2=C(C(=O)C(C(=O)OC)C(C)C2)C1c1cc(Br)c(OC)c(OCC)c1 (stereo not drawn) | 700 | 72.7 | > 100000
CC[n+]1c(/C=C/c2ccc(Cl)cc2)ccc2ccccc21 | 60.8 | < 8.16 | > 10000
Cc1cc(N2CCCCC2)nc(NCc2ccccc2)n1 | 5760 | 739 | 38400
CCOc1ccc(C(=O)CN2C(=O)c3ccccc3OC(C(C)C)C2=O)cc1[N+](=O)[O-] (stereo not drawn) | > 12500 | 1920 | > 100000
Cc1ccn2c(NC(C)(C)CC(C)(C)C)c(-c3ccccc3OC(=O)c3ccc(F)cc3)nc2c1 | 897 | 8.7 | > 10000
CC(=O)Nc1ccc2c(c1)CCCC2 | 1130 | 191 | > 10000
C=CC1CN2CCC1CC2[C@H](O)c1ccnc2ccc(OC)cc12 (stereo partly drawn) | 11.2 | 45.3 | 56500
O=C1NC(=S)NC1=Cc1ccc(C(F)(F)F)cc1 | > 12500 | 1920 | > 100000
COC(=O)C1=C(C)NC2=C(C(=O)CC(c3ccc(OC)c(OC)c3)C2)C1c1ccccc1Br (stereo not drawn) | 136 | 73.1 | > 100000
CO[C@H]1[C@H](C)[C@@H]([C@H]2CC[C@H]([C@@H]3CC[C@H]([C@@]4(C)O[C@]5(O[C@H](C[C@@H]6O[C@](O)([C@@H](C)C(=O)O)[C@@H](C)[C@H](O[C@H]7CC[C@H](OC)[C@@H](C)O7)[C@@]6(C)OC)C[C@@H](OC)[C@H]5C)[C@H](C)[C@H]4OC)O3)O2)O[C@](C)(O)[C@@H]1C | 13.3 | 1.93 | 2420
C[C@H](Nc1cncc(-c2ccc(Cl)cc2)n1)c1ccccc1 | 53.7 | 56.2 | 71000
CN(CCCNc1ccnc2cc(Cl)ccc12)C(=O)C(C)(C)CCl | 94.9 | 192 | > 10000
CCCC(C)C(C(=O)Nc1c(C)cccc1C)N1C(=O)c2cc(NC(C)=O)ccc2NC(=O)[C@@H]1CCC(=O)O (stereo partly drawn) | 1460 | > 163 | 8510
CC(C)NC(=O)N1CCN(C(=O)C(Cc2c[nH]c3ccccc23)NC(=O)Nc2cccc(Cl)c2Cl)CC1C (stereo not drawn) | 27.2 | 43.9 | 57700
CCOC(=O)C1=C(C)NC(=Cc2cc(C)n(-c3ccc(C)cc3C)c2C)C1=O | 64.4 | 78.5 | > 100000
COC(=O)c1c(-c2c(F)cccc2Cl)noc1/C=C/Nc1ccccc1 | 272 | 191 | > 10000
Cc1ccc2c(c1)c(-c1ccccc1)c(-c1ccccc1)n2CC(O)CN1CCN(Cc2ccccc2)CC1 (stereo not drawn) | 824 | 84.5 | > 100000

Reference: ChEMBL document CHEMBL1156829 (Proc Natl Acad Sci U S A, 2008)
